pIC50: −log10 of the molar value.

Test [1] has as its target T1, IDO1 (Homo sapiens (Human), UniProt P14902). As to the kind of experiment: IDO1 Cellular Assay in Frozen HEK293 Cells Transiently Transfected with Human IDO1. The settings on record: HEK293 cells transiently transfected with human IDO1; read-out: IDO1 HEK293 Cell Assay, IC50. Type of test: cell-based. As for the experimental part:
IDO1 Cellular Assay in Frozen HEK293 Cells Transiently Transfected with Human IDO1
HEK293 cells were cultured in complete HEK293 culture medium (90% DMEM, 10% heat-inactivated fetal bovine serum). When reaching sub-confluent, the cells were trypsinized and neutralized with complete medium. […] Flag-IDO1 plasmid was added to the cell suspension at a concentration of 100 μg/mL. The cell-plasmid solutions were transferred to the OC-400 processing assembly (Maxcyte), 400 l/unit and the units were placed in a Maxcyte instrument to carry out flow electroporation for transfection. The cells were then transferred to a sterile 24-well cell culture plate to recover for 20-30 min at 37° C. in an incubator with 5% CO2.
Frozen HEK293/IDO1 and HEK293 WT cells were thawed and transferred into HEK293 assay medium (99% complete HEK293 culture medium, 1% Pen/Strep) with 20 mL medium/vial of cells. The cells were spun down at 250 g in a table top centrifuge for 5 min and suspended in same volume of HEK293 assay medium. […] Sterile L-tryptophan were added to the cells with final concentration of 300 μM.
HEK293/IDO1 and HEK293 WT cells were dispensed to the respective wells of 384-well assay plates containing the compounds. The plates were incubated for about 28-30 h at a 37° C., 5% CO2 incubator. […] The plates were centrifuged for 1 min at 200×g. The resulting fluorescence was measured in a Spectramax plate reader (Molecular Devices) with a 400 nm excitation filter and a 510 nm emission filter.

Test [2] addresses T1, IDO1. Kind of test: IDO1 Enzyme Assay. The settings on record: read-out: IDO1 Enzyme Assay, IC50; HIS-tagged recombinant IDO1, 40 nM.
Test [3] addresses T1, IDO1. As to the kind of experiment: IDO1 Cellular Assay in Hela Cells Stimulated with IFNγ. Type of test: cell-based. The settings on record: Hela cells stimulated with IFNγ 100 ng/mL; read-out: IDO1 HELA Cell Assay, IC50.

T1 sequence (P14902 whole entry): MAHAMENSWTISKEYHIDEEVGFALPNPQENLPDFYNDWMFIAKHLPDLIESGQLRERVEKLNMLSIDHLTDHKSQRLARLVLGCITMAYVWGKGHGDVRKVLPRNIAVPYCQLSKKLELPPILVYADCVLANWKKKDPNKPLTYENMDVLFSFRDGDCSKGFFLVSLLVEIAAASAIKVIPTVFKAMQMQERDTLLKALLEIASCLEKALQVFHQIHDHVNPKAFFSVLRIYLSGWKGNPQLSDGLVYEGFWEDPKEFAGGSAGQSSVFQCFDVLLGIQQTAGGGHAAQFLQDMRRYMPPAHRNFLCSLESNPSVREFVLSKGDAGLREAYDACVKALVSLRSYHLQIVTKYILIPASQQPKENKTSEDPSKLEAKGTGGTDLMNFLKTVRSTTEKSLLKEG

`CCCSc1nonc1/C(=N/O)Nc1ccc(F)c(Br)c1` [Example 23, (Z)-N-(3-bromo-4-fluorophenyl)-N′-hydroxy-4-(propylthio)-1,2,5-oxadiazole-3-carboximidamide]: the pIC50 is 6.58 at IDO1 [1], 6.73 on IDO1 [2] and 6.81 at IDO1 [3].

With `CCSc1nonc1/C(=N/O)Nc1ccc(F)c(Br)c1` [Example 24, (Z)-N-(3-bromo-4-fluorophenyl)-4-(ethylthio)-N′-hydroxy-1,2,5-oxadiazole-3-carboximidamide], the figures for the pIC50 on IDO1 [1], at IDO1 [2] and on IDO1 [3] were 6.88, 6.81 and 7.20, respectively.

Turning to `O/N=C(\Nc1ccc(F)c(Br)c1)c1nonc1SCC1CNC1` [Example 25, (Z)-4-((azetidin-3-ylmethyl)thio)-N-(3-bromo-4-fluorophenyl)-N′-hydroxy-1,2,5-oxadiazole-3-carboximidamide], the results for the pIC50 at IDO1 [1], on IDO1 [2] and at IDO1 [3] were 6.82, 7.04 and 6.83, respectively.

Regarding `O/N=C(\Nc1ccc(F)c(Br)c1)c1nonc1SC1CNC1` [Example 26, (Z)-4-(azetidin-3-ylthio)-N-(3-bromo-4-fluorophenyl)-N′-hydroxy-1,2,5-oxadiazole-3-carboximidamide], the results for the pIC50 at IDO1 [1], on IDO1 [2] and at IDO1 [3] were 6.76, 7.13 and 6.99, respectively.

`O=c1[nH]nc(CSc2nonc2/C(=N/O)Nc2ccc(F)c(Br)c2)[nH]1` [Example 34, N-(3-bromo-4-fluorophenyl)-N′-hydroxy-4-(((5-oxo-4,5-dihydro-1H-1,2,4-triazol-3-yl)methyl)thio)-1,2,5-oxadiazole-3-carboximidamide]: the pIC50 was 6.73 at IDO1 [1], 7.19 at IDO1 [2] and 7.40 on IDO1 [3].

For the compound `CN1C(=O)NC[C@@H]1CSc1nonc1/C(=N/O)Nc1ccc(F)c(Br)c1` [Example 43, (R)—N-(3-bromo-4-fluorophenyl)-N′-hydroxy-4-(((3-methyl-2-oxoimidazolidin-4-yl)methyl)thio)-1,2,5-oxadiazole-3-carboximidamide], the pIC50 on IDO1 [1] is 7.11; on IDO1 [2] it was 7.27; on IDO1 [3], 6.93.

For `NS(=O)(=O)NCCSc1nsnc1/C(=N/O)Nc1ccc(F)c(Br)c1` [Example 47, N-(3-bromo-4-fluorophenyl)-N′-hydroxy-4-((2-(sulfamoylamino)ethyl)thio)-1,2,5-thiadiazole-3-carboximidamide], the pIC50 on IDO1 [1] is 6.54; on IDO1 [2] it was 6.36; on IDO1 [3], 6.61.

`COC(=O)[C@@H](N)CSc1nonc1/C(=N/O)Nc1ccc(F)c(Br)c1` [Example 48, methyl S-{4-[N-(3-bromo-4-fluorophenyl)-N′-hydroxycarbamimidoyl]-1,2,5-oxadiazol-3-yl}-L-cisteinate]: the pIC50 at IDO1 [1] is 6.65; on IDO1 [2], 6.77; on IDO1 [3], 6.19.

`CC(=O)NCCSc1nonc1/C(=N/O)Nc1ccc(F)c(C(F)(F)F)c1` [Example 49, N-{2-[(4-{N-[4-fluoro-3-(trifluoromethyl)phenyl]-N′-hydroxycarbamimidoyl}-1,2,5-oxadiazol-3-yl)sulfanyl]ethyl}acetamide]: the pIC50 at IDO1 [1] is 7.50; on IDO1 [2], 7.19; on IDO1 [3] it was 7.92.

With `OCCSc1nonc1/C(=N/O)Nc1ccc(F)c(C(F)(F)F)c1` [Example 50, N-[4-fluoro-3-(trifluoromethyl)phenyl]-N′-hydroxy-4-[(2-hydroxyethyl)sulfanyl]-1,2,5-oxadiazole-3-carboximidamide], the pIC50 on IDO1 [1] was 7.17; on IDO1 [2] it was 7.00; at IDO1 [3], 7.34.

Consider `CC(=O)NCCSc1nonc1/C(=N/O)Nc1ccc(F)c(C)c1` [Example 51, N-[2-({4-[N-(4-fluoro-3-methylphenyl)-N′-hydroxycarbamimidoyl]-1,2,5-oxadiazol-3-yl}sulfanyl)ethyl]acetamide], for which the pIC50 is 6.98 on IDO1 [1], 6.95 on IDO1 [2] and 7.32 on IDO1 [3].

On to `CC(=O)NCCSc1nonc1/C(=N/O)Nc1ccc(F)c(OC(F)(F)F)c1` [Example 52, N-{2-[(4-{N-[4-fluoro-3-(trifluoromethoxy)phenyl]-N′-hydroxycarbamimidoyl}-1,2,5-oxadiazol-3-yl)sulfanyl]ethyl}acetamide], for which the negative-log IC50 (pIC50) at IDO1 [1] was 6.75; at IDO1 [2], 6.45; on IDO1 [3] it was 6.84.

As to `OCCCCCCSc1nonc1/C(=N/O)Nc1ccc(F)c(Br)c1` [Example 53, N-(3-bromo-4-fluorophenyl)-N′-hydroxy-4-[(6-hydroxyhexyl)sulfanyl]-1,2,5-oxadiazole-3-carboximidamide], the results for the pIC50 on IDO1 [1], on IDO1 [2] and on IDO1 [3] were 6.10, 7.01 and 6.17, respectively.

As for `CC(C)C(O)CCSc1nonc1/C(=N/O)Nc1ccc(F)c(Br)c1` (stereo not drawn) [Example 54, N-(3-bromo-4-fluorophenyl)-N′-hydroxy-4-[(3-hydroxy-4-methylpentyl)sulfanyl]-1,2,5-oxadiazole-3-carboximidamide], the negative logarithm of the IC50 (pIC50) is 6.69 at IDO1 [1], 6.48 on IDO1 [2] and 6.70 at IDO1 [3].

On to `CCNc1c(NCCSc2nonc2/C(=N/O)Nc2ccc(F)c(Br)c2)c(=O)c1=O` [Example 55, N-(3-bromo-4-fluorophenyl)-4-[(2-{[2-(ethylamino)-3,4-dioxocyclobut-1-en-1-yl]amino}ethyl)sulfanyl]-N′-hydroxy-1,2,5-oxadiazole-3-carboximidamide], for which the pIC50 at IDO1 [1] is 6.58; on IDO1 [2], 7.69; on IDO1 [3], 7.17.

For `N=C(N)NCCSc1nonc1/C(=N/O)Nc1ccc(F)c(Br)c1` [Example 56, N-(3-bromo-4-fluorophenvl)-4-[(2-carbamimidamidoethyl)sulfanyl]-N′-hydroxy-1,2,5-oxadiazole-3-carboximidamide], the results for the pIC50 at IDO1 [1], on IDO1 [2] and on IDO1 [3] were 6.67, 7.38 and 7.03, respectively.

As for `NC(CCSc1nonc1/C(=N/O)Nc1ccc(F)c(Br)c1)C(=O)O` (stereo not drawn) [Example 57, S-{4-[N-(3-bromo-4-fluorophenyl)-N′-hydroxycarbamimidoyl]-1,2,5-oxadiazol-3-yl}homocysteine], the pIC50 was 6.44 on IDO1 [1], 7.53 on IDO1 [2] and 6.88 at IDO1 [3].

In the case of `CC(=O)NCCSc1nonc1/C(=N/O)Nc1cc(Br)c(F)cc1F` [Example 58, N-[2-({4-[N-(5-bromo-2,4-difluorophenyl)-N′-hydroxycarbamimidoyl]-1,2,5-oxadiazol-3-yl}sulfanyl)ethyl]acetamide], the pIC50 on IDO1 [1] is 6.54; at IDO1 [2], 6.87; at IDO1 [3], 6.81.

As for `CC(=O)NCCSc1nonc1/C(=N/O)Nc1cccc(Br)c1` [Example 59, N-[2-({4-[N-(3-bromophenyl)-N′-hydroxycarbamimidoyl]-1,2,5-oxadiazol-3-yl}sulfanyl)ethyl]acetamide], the pIC50 was 7.69 at IDO1 [1], 7.63 at IDO1 [2] and 7.65 on IDO1 [3].

`CN/C(=C\[N+](=O)[O-])NCCSc1nonc1C(=NO)Nc1ccc(F)c(Br)c1` [Example 60, N-(3-bromo-4-fluorophenyl)-N′-hydroxy-4-[(2-{[(E)-1-(methylamino)-2-nitroethenyl]amino}ethyl)sulfanyl]-1,2,5-oxadiazole-3-carboximidamide]: the values for the pIC50 at IDO1 [1], on IDO1 [2] and at IDO1 [3] were 6.76, 7.44 and 6.82, respectively.

Regarding `O=C(CSc1nonc1/C(=N/O)Nc1ccc(F)c(Br)c1)Nc1ccccc1` [Example 61, 2-({4-[N-(3-bromo-4-fluorophenyI)-N′-hydroxycarbamimidoyl]-1,2,5-oxadiazol-3-yl}sulfanyl)-N-phenylacetamide], the pIC50 was 6.77 at IDO1 [1], 7.03 on IDO1 [2] and 7.11 at IDO1 [3].

Turning to `CCc1cccc(N/C(=N\O)c2nonc2SCCNC(C)=O)c1` [Example 65, N-[2-({4-[N-(3-ethylphenyl)-N′-hydroxycarbamimidoyl]-1,2,5-oxadiazol-3-yl}sulfanyl)ethyl]acetamide], the pIC50 at IDO1 [1] was 7.13; on IDO1 [2], 7.23; on IDO1 [3], 7.28.

Consider `O/N=C(\Nc1ccc(F)c(Br)c1)c1nonc1SC1CCNC1` (stereo not drawn) [Example 66, N-(3-bromo-4-fluorophenyl)-N′-hydroxy-4-(pyrrolidin-3-ylsulfanyl)-1,2,5-oxadiazole-3-carboximidamide], for which the pIC50 at IDO1 [1] was 7.17; at IDO1 [2], 7.55; on IDO1 [3], 7.03.

For the compound `N#CCSc1nonc1/C(=N/O)Nc1ccc(F)c(Br)c1` [Example 67, N-(3-bromo-4-fluorophenyl)-4-[(cyanomethyl)sulfanyl]-N′-hydroxy-1,2,5-oxadiazole-3-carboximidamide], the pIC50 was 7.75 at IDO1 [1], 7.41 on IDO1 [2] and 7.84 on IDO1 [3].

Usually pIC50 stands for the negative decadic logarithm of the IC50, by convention in mol/L.

The values are drawn from patent US10538497B2, “Compounds as indoleamine 2,3-dioxygenase inhibitors” (Merck Sharp & Dohme Corp., priority 2015, dated 2020).
